Experimental data: article PMC10135964, “One Scaffold, Two Conformations: The Ring-Flip of the Messenger InsP8 Occurs under Cytosolic Conditions” (Biomolecules, 2023)
Where two headings read alike, the source gives them in different places.

Experiments:
[1] = set-up: method as in doi:10.1351/pac199163071015; settings: 150 mM NaCl, 37 °C; cited from earlier work
[2] = 1H,13C BIRD-HMQC NMR quantification of axial vs. equatorial conformer; type: physicochemical; settings: 50 µM, 130 mM KCl, 10 mM NaCl, 4 °C
Experimental: Samples for HMQC-NMR studies contained 50 µM ^13C6-labeled InsPs (InsP6/5PP-InsP5/InsP8), 2 mM bis-tris-propane, 130 mM KCl, 10 mM NaCl and 0/50/250 µM MgCl2 in D2O.
BIRD-HMQC NMR spectra were recorded at 277 K and 600 MHz (^1H frequency) on a Bruker AV-III NMR spectrometer (Bruker Biospin, Rheinstetten, Germany) using cryogenically cooled 5 mm QCI-triple resonance probe equipped with one-axis self-shielded gradients. The spectrometer was operated using topspin 3.5 pl6 software. Instrument temperature was calibrated against […] according to Findeisen et al.. Acquisition parameters were SW(^13C): 60–90 ppm, NS: 128, TD(^13C): 64.
BIRD-HMQC spectra were recorded at 277 K as described above, with samples containing 200 µM InsPs, 130 mM KCl, 10 mM NaCl, 2mM BTP in D2O. pH was set to pH* 9.5 for InsP6, pH* 8.8 for 5PP-InsP5 and pH* 8.5 for InsP8 (pH = 0.929 × pH* + 0.42 [35]). NOESY-HMQC spectra of the same samples were subsequently recorded using mixing times of 80 ms for InsP6 and 5PP-InsP5 and 200 ms for InsP8. Conformational exchange on the time-scale of the experiment created cross-peaks between corresponding peaks in different conformations, which allowed us to assign each peak of the equatorial conformer to its axial counterpart.

[3] = as above; type: physicochemical; settings: pH* 8.5, 5 equiv. Ca2+, 130 mM KCl, 10 mM NaCl
[4] = set-up: method as in PMID 27460418, PMID 15708805, doi:10.1016/j.molstruc.2007.03.035; settings: 31P NMR (22 °C); equation as printed refers to InsP8 complexes; cited from earlier work
[5] = set-up: method as in PMID 27460418, PMID 15708805, doi:10.1016/j.molstruc.2007.03.035; settings: Potentiometry (37 °C); equation as printed refers to InsP8 complexes; cited from earlier work
[6] = pH* 9.5, without divalent cations

SMILES: Nc1ncnc2c1ncn2[C@@H]1O[C@H](COP(=O)(O)OP(=O)(O)OP(=O)(O)O)[C@@H](O)[C@H]1O [ATP]
- log(K), Mg^2+ + ATP^4− → [MgATP]^2− [1]: 4.34
- log(K), Mg^2+ + HATP^3− → [Mg(HATP)]^− [1]: 2.39

SMILES: O=P(O)(O)O[C@H]1[C@@H](OP(=O)(O)O)[C@H](OP(=O)(O)O)[C@@H](OP(=O)(O)OP(=O)(O)O)[C@H](OP(=O)(O)O)[C@H]1OP(=O)(O)O [5PP-InsP5]
- proportion in axial conformation ([2]; pH* 8.5 (=pH 8.3) and higher, 5 equiv. Mg2+): exclusively the axial conformation
- proportion in axial conformation ([2]; pH* 8.5, without divalent cations): about 10%
- proportion in axial conformation [2, 6]: only detected in the axial conformation
- proportion in axial conformation [3]: About 60%

SMILES: O=P(O)(O)CP(=O)(O)O[C@H]1[C@H](OP(=O)(O)O)[C@@H](OP(=O)(O)O)[C@@H](OP(=O)(O)O)[C@@H](OP(=O)(O)O)[C@@H]1OP(=O)(O)O [5PCP-InsP5]
- log K, 2 K^+ + H5L^9− ↔ [K2(H5L)]^7− [4]: 2.79(7)
- log K, 3 K^+ + H4L^10− ↔ [K3(H4L)]^7− [4]: 3.94(4)
- log K, 4 K^+ + H2L^12− ↔ [K4(H2L)]^8− [4]: 4.61(3)
- log K, 4 K^+ + H3L^11− ↔ [K4(H3L)]^7− [4]: 4.50(5)
- log K, 5 K^+ + HL^13− ↔ [K5(HL)]^8− [4]: 6.57(3)
- log K, L^14− + 2 H^+ ↔ H2L^12− [4]: 22.42(2)
- log K, L^14− + 3 H^+ ↔ H3L^11− [4]: 32.26(2)
- log K, L^14− + 4 H^+ ↔ H4L^10− [4]: 40.94(2)
- log K, L^14− + 5 H^+ ↔ H5L^9− [4]: 47.67(2)
- log K, L^14− + 6 H^+ ↔ H6L^8− [4]: 51.93(2)
- log K, L^14− + 7 H^+ ↔ H7L^7− [4]: 55.64(2)
- log K, L^14− + H^+ ↔ HL^13− [4]: 11.48(1)
- log K, Mg^2+ + H2L^12− + 3 K^+ ↔ [MgK3(H2L)]^7− [4]: 9.75(7)
- log K, Mg^2+ + H4L^10− + 2 K^+ ↔ [MgK2(H4L)]^6− [4]: 6.96(7)
- log K, Mg^2+ + H5L^9− + K^+ ↔ [MgK(H5L)]^6− [4]: 5.26(7)
- log K, Mg^2+ + H6L^8− ↔ [Mg(H6L)]^6− [4]: 4.71(7)
- log K, Mg^2+ + HL^13− + 4 K^+ ↔ [MgK4(HL)]^7− [4]: 11.64(5)

SMILES: O=P(O)(O)O[C@H]1[C@H](OP(=O)(O)O)[C@@H](OP(=O)(O)O)[C@H](OP(=O)(O)O)[C@@H](OP(=O)(O)O)[C@H]1OP(=O)(O)O [InsP6]
- proportion in axial conformation ([2]; pH* 9.0, 1 equiv. Mg2+): about 30%
- proportion in axial conformation ([2]; pH* 9.0, without divalent cations): traces
- proportion in axial conformation ([2]; pH* 9.5, 1 equiv. Mg2+): ~90%
- proportion in axial conformation [2, 6]: less than half
- log K, 3 K^+ + H4L^10− ↔ [K3(H4L)]^7− [5]: 3.36(5)
- log K, 4 K^+ + H3L^11− ↔ [K4(H3L)]^7− [5]: 5.42(5)
- log K, L^14− + 2 H^+ ↔ H2L^12− [5]: 21.3(1)
- log K, L^14− + 3 H^+ ↔ H3L^11− [5]: 31.63(6)
- log K, L^14− + 4 H^+ ↔ H4L^10− [5]: 40.42(6)
- log K, L^14− + 5 H^+ ↔ H5L^9− [5]: 47.32(6)
- log K, L^14− + 6 H^+ ↔ H6L^8− [5]: 53.04(7)
- log K, L^14− + 7 H^+ ↔ H7L^7− [5]: 56.14(9)
- log K, L^14− + H^+ ↔ HL^13− [5]: 10.8(1)
